From patent US9499495B2, “Quinazolines and azaquinazolines as dual inhibitors of RAS/RAF/MEK/ERK and PI3K/AKT/PTEN/mTOR pathways” (Asana Biosciences, LLC, priority 2013, dated 2016)

How the values were obtained:
PI3Kα = target: T1, PI3Kα (Homo sapiens, UniProt P42336); test: PI3 Kinase alpha TR-FRET assay; assay type: biochemical
T1 construct: made in house; host or cells: SF9 cells
Protocol: Compound inhibition for PI3Kα was determined in a homogeneous TR-FRET assay using a PI3Kα assay kit (Millipore, US, Catalog #33-016). The PI3 kinase catalyzes phosphorylation of […] (PIP2) to phosphatidylinositol 3,4,5-trisphosphate (PIP3) in the presence of ATP and Mg^2+. The PIP3 product is detected by displacement of biotin-PIP3 from an energy transfer complex consisting of Europium labeled anti-GST monoclonal antibody, a GST-tagged pleckstrin homology (PH) domain, biotinylated PIP3 and Streptavidin-Allophycocyanin (APC). Excitation of Europium in the complex results in an energy transfer to the APC and a fluorescence emission at 665 nm.
Compounds tested were dissolved in DMSO and directly distributed into 384-well plates at a volume of 0.5 μL. P110/P85a/PIP2 mixture (14.5 μL) was added to compound wells and incubated for 30 min at rt […]. P110/P85a was expressed in SF9 cells and purified in-house. 5 ng P110/P85a was used in the assay. The kinase reaction was started by the addition of ATP. The assay concentrations of both PIP2 and ATP were 40 μM. The reaction mixture was incubated for 30 min and was terminated by the addition of stop mix and detection mix. Fluorescence was measured at 615 and 665 nm upon excitation at 340 nm in a Victor V5 fluorometer (Perkin Elmer, US). The fluorescence emission ratio at 665 to 615 nm, proportional to the kinase activity, was plotted against the compound concentration to generate dose-response curves and IC50 values were determined.

B-RAFV600E = target: T2, B-RAFV600E (Homo sapiens, UniProt P15056, V600E); test: B-RAFV600E radiometric assay; assay type: biochemical; settings: read-out: Kinase assay B-Raf
T2 construct: purchased Millipore, USA 14-557
In short: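 B-RAFV600E was preincubated 45 min at rt with compound in 1% DMSO. MEK-K97M (0.5 μg), 5 μM final cold ATP and [γ-32P]ATP were then added for 2 h at rt. Phosphorylated MEK was captured on P81 paper and scintillation-counted; IC50 came from a sigmoidal dose-response fit.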

pERK in A375 cells = test: In Cell Western (ICW) assay, pERK in A375 cells; assay type: cell-based; settings: Homo sapiens, A-375, 3 h treatment
In short: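 RKO or A375 cells were exposed to compounds for 3 h at 37 °C, then fixed and stained in-cell with antibodies to pERK1/2 (T202/Y204), pS6RP or pAKT T308, followed by a Eu-labelled secondary. Time-resolved fluorescence (340/615 nm) was normalized to Hoechst, and IC50 values were fitted sigmoidally against DMSO as 0% inhibition.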

RKO cells = test: XTT assay for cell viability, RKO cells; assay type: cell-based; settings: Homo sapiens, 72 h
Protocol: Cell lines (A375 ATCC No. CRL-1619, A2058 ATCC No. CRL-11147 and RKO ATCC No. CRL-2577, American Type Culture Collection (ATCC), Manassas Va.) once attaining ˜80% confluency were trypsinized, centrifuged and resuspended in fresh media. Cells (1000-2000/per well) were seeded in 96-well plate and incubated over-night at 37° C. in a 5% CO2 incubator. Compound dilutions were prepared in 100% DMSO followed by dilutions in the respective media. The cells were treated with NCEs for 72 h at 37° C. in 5% CO2 incubator. After 72 h, freshly prepared XTT (1 mg/ml)/PMS (25 μM) solution was added, incubated for 2 to 3 h at 37° C. and the absorbance was measured at 450 nm using an ELISA plate reader. Keeping DMSO control as 100%, the effect of the compound to inhibit the cell proliferation was calculated and the GI50 values were determined using sigmoidal dose response curve fit in GraphPad Prism® v5 software.

A375 cells = test: XTT assay for cell viability, A375 cells; assay type: cell-based; settings: Homo sapiens, A-375, 72 h
In short: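 RKO and A375 cells seeded at 1000-2000/well overnight, then exposed to compound for 72 h at 37° C., 5% CO2. XTT (1 mg/ml)/PMS (25 μM) added for 2-3 h; absorbance at 450 nm. Growth relative to DMSO control (100%); GI50 from sigmoidal dose-response fit.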

mTOR kinase = target: T3, mTOR kinase (Homo sapiens, UniProt P42345); test: mTOR kinase TR-FRET assay; assay type: biochemical
T3 construct: purchased Millipore, US
In short: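 TR-FRET with ULight-p70 S6K (Thr 389) peptide (50 nM) and 20 μM ATP in 50 mM HEPES pH 7.5, 1 mM EGTA, 3 mM MnCl2; compound pre-incubated with enzyme before substrate addition, reaction at rt, EDTA-stopped. Eu anti-phospho antibody read 665/615 nm; IC50 from sigmoidal dose-response fit.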

T2 sequence (P15056 416-766 V600E limits assumed): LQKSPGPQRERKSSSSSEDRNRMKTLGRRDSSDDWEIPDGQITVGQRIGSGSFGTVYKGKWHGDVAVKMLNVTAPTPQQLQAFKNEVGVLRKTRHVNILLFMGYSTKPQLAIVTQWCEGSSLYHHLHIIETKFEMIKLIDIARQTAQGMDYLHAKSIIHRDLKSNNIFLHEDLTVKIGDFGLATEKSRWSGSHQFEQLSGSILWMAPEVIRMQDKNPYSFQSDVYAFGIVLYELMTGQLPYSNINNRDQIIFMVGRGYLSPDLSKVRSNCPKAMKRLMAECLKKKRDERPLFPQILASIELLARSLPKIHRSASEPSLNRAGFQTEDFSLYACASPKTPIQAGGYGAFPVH
T3 sequence (P42345 1362-2549 limits assumed): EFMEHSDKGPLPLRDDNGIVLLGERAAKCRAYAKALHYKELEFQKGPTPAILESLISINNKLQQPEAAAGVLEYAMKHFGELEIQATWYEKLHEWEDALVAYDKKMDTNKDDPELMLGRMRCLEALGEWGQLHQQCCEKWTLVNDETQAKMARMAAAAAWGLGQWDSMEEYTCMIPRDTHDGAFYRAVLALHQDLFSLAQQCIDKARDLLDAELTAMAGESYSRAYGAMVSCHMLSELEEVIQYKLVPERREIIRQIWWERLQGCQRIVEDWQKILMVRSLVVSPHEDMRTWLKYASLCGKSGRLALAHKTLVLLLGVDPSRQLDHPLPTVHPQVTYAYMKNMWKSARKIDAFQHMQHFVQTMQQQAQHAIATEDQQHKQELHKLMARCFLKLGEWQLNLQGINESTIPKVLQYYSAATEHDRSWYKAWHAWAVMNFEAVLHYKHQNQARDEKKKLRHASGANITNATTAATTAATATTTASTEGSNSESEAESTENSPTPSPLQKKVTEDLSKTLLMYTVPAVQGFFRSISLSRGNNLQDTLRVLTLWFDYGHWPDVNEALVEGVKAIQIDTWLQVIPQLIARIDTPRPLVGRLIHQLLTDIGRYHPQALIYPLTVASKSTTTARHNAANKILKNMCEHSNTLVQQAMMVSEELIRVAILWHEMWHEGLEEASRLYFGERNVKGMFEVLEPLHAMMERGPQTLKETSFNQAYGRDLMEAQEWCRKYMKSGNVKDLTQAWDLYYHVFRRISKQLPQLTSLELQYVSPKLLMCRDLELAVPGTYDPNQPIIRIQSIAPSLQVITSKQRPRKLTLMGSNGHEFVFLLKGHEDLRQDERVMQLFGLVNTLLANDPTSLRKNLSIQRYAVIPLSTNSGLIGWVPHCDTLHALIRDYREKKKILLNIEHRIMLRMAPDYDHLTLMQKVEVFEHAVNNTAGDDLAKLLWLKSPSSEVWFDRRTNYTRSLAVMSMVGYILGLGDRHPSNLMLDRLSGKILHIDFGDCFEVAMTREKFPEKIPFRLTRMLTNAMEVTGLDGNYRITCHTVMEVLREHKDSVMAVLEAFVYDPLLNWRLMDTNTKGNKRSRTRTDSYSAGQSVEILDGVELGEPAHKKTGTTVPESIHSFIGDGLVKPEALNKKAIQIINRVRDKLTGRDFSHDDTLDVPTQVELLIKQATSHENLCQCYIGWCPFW
T1 sequence (P42336 whole entry, species assumed): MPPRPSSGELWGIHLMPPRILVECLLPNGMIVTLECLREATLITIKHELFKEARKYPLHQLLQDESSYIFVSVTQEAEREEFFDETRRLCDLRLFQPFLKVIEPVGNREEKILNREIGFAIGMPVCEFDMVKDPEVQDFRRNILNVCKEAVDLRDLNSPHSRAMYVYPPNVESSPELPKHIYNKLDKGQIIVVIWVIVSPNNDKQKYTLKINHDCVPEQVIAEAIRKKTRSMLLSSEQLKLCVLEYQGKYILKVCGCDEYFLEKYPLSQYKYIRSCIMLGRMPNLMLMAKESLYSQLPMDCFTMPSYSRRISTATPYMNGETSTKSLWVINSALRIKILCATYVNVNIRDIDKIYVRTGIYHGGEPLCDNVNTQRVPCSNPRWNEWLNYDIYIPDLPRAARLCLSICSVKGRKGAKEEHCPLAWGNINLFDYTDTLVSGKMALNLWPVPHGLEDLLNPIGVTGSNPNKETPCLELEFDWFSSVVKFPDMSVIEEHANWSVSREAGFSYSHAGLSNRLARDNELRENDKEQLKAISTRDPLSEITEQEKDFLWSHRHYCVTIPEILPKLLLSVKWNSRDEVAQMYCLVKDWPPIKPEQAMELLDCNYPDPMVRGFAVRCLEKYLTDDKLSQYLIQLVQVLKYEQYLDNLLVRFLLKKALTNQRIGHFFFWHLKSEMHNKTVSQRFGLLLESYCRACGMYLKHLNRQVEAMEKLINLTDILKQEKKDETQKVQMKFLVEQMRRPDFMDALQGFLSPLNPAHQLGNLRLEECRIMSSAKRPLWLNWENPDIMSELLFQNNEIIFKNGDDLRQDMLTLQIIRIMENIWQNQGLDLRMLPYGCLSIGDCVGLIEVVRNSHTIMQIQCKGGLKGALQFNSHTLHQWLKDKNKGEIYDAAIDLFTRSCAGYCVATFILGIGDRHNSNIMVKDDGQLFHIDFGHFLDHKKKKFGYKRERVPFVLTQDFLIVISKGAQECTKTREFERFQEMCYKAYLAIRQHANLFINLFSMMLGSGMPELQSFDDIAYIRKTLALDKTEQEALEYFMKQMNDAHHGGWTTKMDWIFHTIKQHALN
T1 sequence (P27986 whole entry partner, species assumed): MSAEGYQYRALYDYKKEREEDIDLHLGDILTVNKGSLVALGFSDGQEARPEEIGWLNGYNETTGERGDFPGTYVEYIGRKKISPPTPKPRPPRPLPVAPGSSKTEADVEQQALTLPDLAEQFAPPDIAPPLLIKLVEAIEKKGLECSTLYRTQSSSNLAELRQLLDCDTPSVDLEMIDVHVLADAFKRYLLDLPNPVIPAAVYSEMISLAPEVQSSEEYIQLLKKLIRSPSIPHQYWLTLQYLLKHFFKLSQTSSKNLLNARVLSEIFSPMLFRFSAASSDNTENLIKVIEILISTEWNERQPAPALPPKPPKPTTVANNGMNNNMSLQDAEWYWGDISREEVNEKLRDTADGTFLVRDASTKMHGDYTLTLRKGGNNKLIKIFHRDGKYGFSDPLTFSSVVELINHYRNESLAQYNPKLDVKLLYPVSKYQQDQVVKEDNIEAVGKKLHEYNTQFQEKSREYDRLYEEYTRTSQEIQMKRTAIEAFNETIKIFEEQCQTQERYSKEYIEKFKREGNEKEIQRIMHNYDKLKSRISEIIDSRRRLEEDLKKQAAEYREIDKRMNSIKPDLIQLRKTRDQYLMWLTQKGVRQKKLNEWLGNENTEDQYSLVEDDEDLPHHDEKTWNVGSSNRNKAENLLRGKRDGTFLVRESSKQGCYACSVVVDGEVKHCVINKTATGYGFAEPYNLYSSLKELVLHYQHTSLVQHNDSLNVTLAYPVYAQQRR

Compound | IC50 (PI3Kα) [nM] | IC50 (B-RAFV600E) [nM] | IC50 (pERK in A375 cells) [nM] | IC50 (A375 cells) [nM] | IC50 (mTOR kinase) [nM] | IC50 (RKO cells) [nM]
CCCS(=O)(=O)Nc1cccc(-c2cc(C)c3nc(-c4ccc(N)nc4)nc(N4CCOCC4)c3c2)c1F [Example 8, N-(3-(2-(6-aminopyridin-3-yl)-8-methyl-4-morpholinoquinazolin-6-yl)-2-fluorophenyl)propane-1-sulfonamide] | 100 to 1000 | 100 to 1000 | 100 to 1000 | 100 to 1000 | – | 100 to 1000
COc1cc(-c2cccc(NS(=O)(=O)CCCF)c2F)cc2c(N3CCOCC3)nc(-c3cnc(N)cc3C(F)(F)F)nc12 [Example 36, N-(3-(2-(6-amino-4-(trifluoromethyl)pyridin-3-yl)-8-methoxy-4-morpholinoquinazolin-6-yl)-2-fluorophenyl)-3-fluoropropane-1-sulfonamide] | 100 to 1000 | 1 to 100 | 1 to 100 | 100 to 1000 | – | 1000 to 10000
COc1cc(-c2cccc(NS(=O)(=O)CCCF)c2F)cc2c(N3CCOCC3)nc(-c3cccc4[nH]ncc34)nc12 [Example 37, N-(3-(2-(1H-indazol-4-yl)-8-methoxy-4-morpholinoquinazolin-6-yl)-2-fluorophenyl)-3-fluoropropane-1-sulfonamide] | 100 to 1000 | 1 to 100 | 1 to 100 | 100 to 1000 | – | 1000 to 10000
CNc1ccc(-c2nc(N3CCOCC3)c3cc(-c4cccc(NS(=O)(=O)CCCF)c4F)cc(OC)c3n2)cn1 [Example 50, 3-fluoro-N-(2-fluoro-3-(8-methoxy-2-(6-(methylamino)pyridin-3-yl)-4-morpholinoquinazolin-6-yl)phenyl)propane-1-sulfonamide] | – | 1 to 100 | 1 to 100 | 1 to 100 | 1 to 100 | 100 to 1000
CNc1ncc(-c2nc(N3CCOCC3)c3cc(-c4cccc(NS(=O)(=O)CCCF)c4F)cc(OC)c3n2)cn1 [Example 51, 3-fluoro-N-(2-fluoro-3-(8-methoxy-2-(2-(methylamino)pyrimidin-5-yl)-4-morphoIinoquinazolin-6-yl)phenyl)propane-1-sulfonamide] | – | 1 to 100 | 1 to 100 | 1 to 100 | 1 to 100 | 100 to 1000
Nc1ccc(-c2nc(N3CCOCC3)c3cc(-c4cccc(NS(=O)(=O)CCCF)c4F)cc(OC4CCCC4)c3n2)cn1 [Example 53, N-(3-(2-(6-aminopyridin-3-yl)-8-(cyclopentyloxy)-4-morpholinoquinazolin-6-yl)-2-fluorophenyl)-3-fluoropropane-1-sulfonamide] | – | 1 to 100 | 1 to 100 | 1 to 100 | 1 to 100 | 100 to 1000

Further lines, with some results ahead:

IC50 (PI3Kα) [nM] | IC50 (B-RAFV600E) [nM] | IC50 (pERK in A375 cells) [nM] | IC50 (A375 cells) [nM] | IC50 (mTOR kinase) [nM] | Compound | IC50 (RKO cells) [nM]
– | 1 to 100 | 1 to 100 | 1 to 100 | 1 to 100 | C[C@@H]1COCCN1c1nc(-c2ccc(N)nc2)nc2c(OC3CCCC3)cc(-c3cccc(NS(=O)(=O)CCCF)c3F)cc12 [Example 62, (R)-N-(3-(2-(6-aminopyridin-3-yl)-8-(cyclopentyloxy)-4-(3-methylmorpholino)quinazolin-6-yl)-2-fluorophenyl)-3-fluoropropane-1-sulfonamide] | 100 to 1000
100 to 1000 | 1 to 100 | 1 to 100 | 100 to 1000 | – | COc1cc(-c2c(F)ccc(NS(=O)(=O)CCCF)c2F)cc2c(N3CCOCC3)nc(-c3cccc4[nH]ncc34)nc12 [Example 81, N-(3-(2-(1H-indazol-4-yl)-8-methoxy-4-morpholinoquinazolin-6-yl)-2,4-difluorophenyl)-3-fluoropropane-1-sulfonamide] | –
100 to 1000 | 1 to 100 | 1 to 100 | 1000 to 10000 | – | O=S(=O)(CCCF)Nc1cccc(-c2ccc3nc(-c4cnc(NCCCO)nc4)nc(N4CCOCC4)c3n2)c1F [Example 110, 3-fluoro-N-(2-fluoro-3-(2-(2-((3-hydroxypropyl)amino)pyrimidin-5-yl)-4-morpholinopyrido[3,2-d]pyrimidin-6-yl)phenyl)propane-1-sulfonamide] | –
– | 1 to 100 | 1 to 100 | 100 to 1000 | 100 to 1000 | CC(C)Nc1ccc(-c2nc(N3CCOCC3)c3nc(-c4cccc(NS(=O)(=O)CCCF)c4F)ccc3n2)cn1 [Example 114, 3-fluoro-N-(2-fluoro-3-(2-(6-(isopropylamino)pyridin-3-yl)-4-morpholinopyrido[3,2-d]pyrimidin-6-yl)phenyl)propane-1-sulfonamide] | 100 to 1000
– | 1 to 100 | 1 to 100 | 100 to 1000 | 1 to 100 | Cc1cc(-c2cccc(NS(=O)(=O)CCCF)c2F)cc2c(N3CCOCC3)nc(-c3ccc(N)nc3)nc12 [Example 117, N-(3-(2-(6-aminopyridin-3-yl)-8-methyl-4-morpholinoquinazolin-6-yl)-2-fluorophenyl)-3-fluoropropane-1-sulfonamide] | 1000 to 10000
– | 1 to 100 | – | 100 to 1000 | 100 to 1000 | Cc1cc(-c2cccc(NS(=O)(=O)CCCF)c2F)cc2c(N3CCOCC3)nc(-c3cccc4[nH]ncc34)nc12 [Example 118, N-(3-(2-(1H-indazol-4-yl)-8-methyl-4-morpholinoquinazolin-6-yl)-2-fluorophenyl)-3-fluoropropane-1-sulfonamide] | 1000 to 10000
